Data: patent US8273774B2, “Phenoxypyridinylamide compounds” (AstraZeneca AB, priority 2008, dated 2012)

Biological target: recombinant Human Phosphodiesterase B2 (PDE4B2) (Homo sapiens, UniProt Q07343)
Test: Human Phosphodiesterase B2 Radiometric Assay
Type: biochemical
Conditions: 0.1 μg/mL recombinant PDE4B2; preincubated at 30 C for 30 min; [3H]cyclic AMP 8 nM, stopped after 20 min; yttrium silicate SPA beads; read-out: PDE4B2 pIC50 (converted)
Protocol: Human Phosphodiesterase B2 Radiometric Assay
The assay uses recombinant Human Phosphodiesterase B2 (PDE4B2) produced in house (PrAZL0163), stored at −20° C. This assay is based on the observation that 5′AMP, the product of the reaction catalysed by PDE4, binds preferentially to yttrium silicate SPA beads (Amersham Biosciences, UK) compared to the substrate, cAMP. Compounds at the appropriate concentration were preincubated at 30 C for 30 min with an assay buffer containing 50 mM HEPES (pH 7.5), 8.3 mM MgCl2, 1.7 mM EGTA, 0.01% (w/v) Brij®35 and 0.1 μg/mL recombinant PDE4B2. The reaction was started by the addition of [3H]cyclic AMP to give a final concentration of 8 nM, and was stopped 20 min after the addition of the substrate by the addition of yttrium silicate SPA beads containing 18 mM Zn SO4. Bound […] was measured using a Topcount NXT (Packard Bioscience, UK). pIC50 values (presented in Table 2) were determined using Xlfit3 curve fitting, using model 205.

Sequence of recombinant Human Phosphodiesterase B2 (PDE4B2) (Q07343 1-564 isoform Q07343-2): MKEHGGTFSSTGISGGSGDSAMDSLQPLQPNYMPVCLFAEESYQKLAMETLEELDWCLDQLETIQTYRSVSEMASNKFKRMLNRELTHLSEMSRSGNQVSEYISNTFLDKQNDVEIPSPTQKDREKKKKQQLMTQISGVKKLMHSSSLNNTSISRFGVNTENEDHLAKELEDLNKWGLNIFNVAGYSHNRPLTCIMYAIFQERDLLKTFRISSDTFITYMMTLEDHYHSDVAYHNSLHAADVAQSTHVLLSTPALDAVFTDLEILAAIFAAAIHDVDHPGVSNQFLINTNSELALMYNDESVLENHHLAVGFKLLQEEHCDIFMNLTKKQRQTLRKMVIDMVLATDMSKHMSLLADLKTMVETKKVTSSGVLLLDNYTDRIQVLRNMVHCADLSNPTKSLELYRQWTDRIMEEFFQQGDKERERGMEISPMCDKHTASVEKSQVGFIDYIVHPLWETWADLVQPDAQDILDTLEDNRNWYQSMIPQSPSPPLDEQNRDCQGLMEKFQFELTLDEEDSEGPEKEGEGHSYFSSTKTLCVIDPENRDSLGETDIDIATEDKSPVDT

| IC50 [nM] | Compound |
| --- | --- |
| 0.126 | Cc1cccc2nc(C(=O)N[C@H]3CC[C@@H](NC(=O)c4cc(F)cnc4Oc4cccc(-c5ccc(CN6CCCOCC6)cc5)c4)CC3)cn12 [Example 46, N-((1s,4s)-4-(2-(4′-((1,4-oxazepan-4-yl)methyl)biphenyl-3-yloxy)-5-fluoronicotinamido)cyclohexyl)-5-methylimidazo[1,2-a]pyridine-2-carboxamide] |
| 0.794 | Cc1cccc2nc(C(=O)N[C@H]3CC[C@@H](NC(=O)c4cc(F)cnc4Oc4cccc(-c5ccc(CN(C)C)cc5)c4)CC3)cn12 [Example 47, N-((1s,4s)-4-(2-(4′-((dimethylamino)methyl)biphenyl-3-yloxy)-5-fluoronicotinamido)cyclohexyl)-5-methylimidazo[1,2-a]pyridine-2-carboxamide] |
| 0.0631 | Cc1cccc2nc(C(=O)N[C@H]3CC[C@@H](NC(=O)c4cc(F)cnc4Oc4cccc(-c5ccc(CN6C[C@@H](C)N[C@@H](C)C6)cc5)c4)CC3)cn12 [Example 48, N-((1s,4s)-4-(2-(4′-(((3S,5R)-3,5-dimethylpiperazin-1-yl)methyl)biphenyl-3-yloxy)-5-fluoronicotinamido)cyclohexyl)-5-methylimidazo[1,2-a]pyridine-2-carboxamide] |
| 0.316 | Cc1cccc2nc(C(=O)N[C@H]3CC[C@@H](NC(=O)c4cc(F)cnc4Oc4cccc(-c5ccc(CN6CCCC6)cc5)c4)CC3)cn12 [Example 50, N-((1s,4s)-4-(5-fluoro-2-(4′-(pyrrolidin-1-ylmethyl)biphenyl-3-yloxy)nicotinamido)cyclohexyl)-5-methylimidazo[1,2-a]pyridine-2-carboxamide] |
| 0.1 | Cc1cccc2nc(C(=O)N[C@H]3CC[C@@H](NC(=O)c4cc(F)cnc4Oc4cccc(-c5ccc(CN(C)CCO)cc5)c4)CC3)cn12 [Example 51, N-((1s,4s)-4-(5-fluoro-2-(4′-(((2-hydroxyethyl)(methyl)amino)methyl)biphenyl-3-yloxy)nicotinamido)cyclohexyl)-5-methylimidazo[1,2-a]pyridine-2-carboxamide] |
| 0.0794 | Cc1cccc2nc(C(=O)N[C@H]3CC[C@@H](NC(=O)c4cc(F)cnc4Oc4cccc(-c5ccc(C(=O)O)cc5CN5CCOCC5)c4)CC3)cn12 [Example 59, 3′-(5-fluoro-3-((1s,4s)-4-(5-methylimidazo[1,2-a]pyridine-2-carboxamido)cyclohexylcarbamoyl)pyridin-2-yloxy)-2-(morpholinomethyl)biphenyl-4-carboxylic acid] |
| 0.126 | Cc1cccc2nc(C(=O)N[C@H]3CC[C@@H](NC(=O)c4cc(F)cnc4Oc4cccc(-c5ccc(CN6CCCN(C)CC6)cc5)c4)CC3)cn12 [Example 64, N-((1s,4s)-4-(5-fluoro-2-(4′-((4-methyl-1,4-diazepan-1-yl)methyl)biphenyl-3-yloxy)nicotinamido)cyclohexyl)-5-methylimidazo[1,2-a]pyridine-2-carboxamide] |
| 0.1 | C[C@@H]1CN(Cc2ccc(-c3cccc(Oc4ncc(F)cc4C(=O)N[C@H]4CC[C@@H](NC(=O)c5cn6cc(F)ccc6n5)CC4)c3)cc2)C[C@H](C)N1 [Example 67, N-((1s,4s)-4-(2-(4′-(((3S,5R)-3,5-dimethylpiperazin-1-yl)methyl)biphenyl-3-yloxy)-5-fluoronicotinamido)cyclohexyl)-6-fluoroimidazo[1,2-a]pyridine-2-carboxamide] |
| 0.0794 | C[C@@H]1CN(Cc2ccc(-c3cccc(Oc4ncc(F)cc4C(=O)N[C@H]4CC[C@@H](NC(=O)c5csc(CO)n5)CC4)c3)cc2)C[C@H](C)N1 [Example 70, N-((1s,4s)-4-(2-(4′-(((3S,5R)-3,5-dimethylpiperazin-1-yl)methyl)biphenyl-3-yloxy)-5-fluoronicotinamido)cyclohexyl)-2-(hydroxymethyl)thiazole-4-carboxamide] |

The remaining lines, values behind:

| Compound | IC50 [nM] |
| --- | --- |
| Cn1ccc(C(=O)N[C@H]2CC[C@@H](NC(=O)c3cc(F)cnc3Oc3cccc(-c4ccc(O)cc4CN4CCOCC4)c3)CC2)n1 [Example 49, 5-fluoro-2-(4′-hydroxy-2′-(morpholinomethyl)biphenyl-3-yloxy)-N-((1s,4s)-4-(1-methyl-1H-pyrazole-3-carboxamido)cyclohexyl)nicotinamide] | 0.0251 |
| CN(C)Cc1cc(O)ccc1-c1cccc(Oc2ncc(F)cc2C(=O)N[C@H]2CC[C@@H](NC(=O)c3cccc4[nH]cnc34)CC2)c1 [Example 52, N-((1s,4s)-4-(2-(2′-((dimethylamino)methyl)-4′-hydroxybiphenyl-3-yloxy)-5-fluoronicotinamido)cyclohexyl)-1H-benzo[d]imidazole-4-carboxamide] | 0.0501 |
| Cc1nc(C(=O)N[C@H]2CC[C@@H](NC(=O)c3cc(F)cnc3Oc3cccc(-c4ccc(CN5C[C@@H](C)N[C@@H](C)C5)cc4)c3)CC2)cs1 [Example 54, N-((1s,4s)-4-(2-(4′-(((3S,5R)-3,5-dimethylpiperazin-1-yl)methyl)biphenyl-3-yloxy)-5-fluoronicotinamido)cyclohexyl)-2-methylthiazole-4-carboxamide] | 0.0631 |
| Cc1nc(C(=O)N[C@H]2CC[C@@H](NC(=O)c3cc(F)cnc3Oc3cccc(-c4ccc(CN5CCCOCC5)cc4)c3)CC2)cs1 [Example 55, N-((1s,4s)-4-(2-(4′-((1,4-oxazepan-4-yl)methyl)biphenyl-3-yloxy)-5-fluoronicotinamido)cyclohexyl)-2-methylthiazole-4-carboxamide] | 0.1 |
| Cc1nc(C(=O)N[C@H]2CC[C@@H](NC(=O)c3cc(F)cnc3Oc3cccc(-c4ccc(CN5CCOCC5)cc4O)c3)CC2)cs1 [Example 56, N-((1s,4s)-4-(5-fluoro-2-(2′-hydroxy-4′-(morpholinomethyl)biphenyl-3-yloxy)nicotinamido)cyclohexyl)-2-methylthiazole-4-carboxamide] | 0.0251 |
| Cc1nc(C(=O)N[C@H]2CC[C@@H](NC(=O)c3cc(F)cnc3Oc3cccc(-c4ccc(CN5CCNCC5)cc4O)c3)CC2)cs1 [Example 57, N-((1s,4s)-4-(5-fluoro-2-(2′-hydroxy-4′-(piperazin-1-ylmethyl)biphenyl-3-yloxy)nicotinamido)cyclohexyl)-2-methylthiazole-4-carboxamide] | 0.0631 |
| O=C(N[C@H]1CC[C@@H](NC(=O)c2cc(F)cnc2Oc2cccc(-c3ccc(O)cc3CN3CCOCC3)c2)CC1)c1csc(CO)n1 [Example 58, N-((1s,4s)-4-(5-fluoro-2-(4′-hydroxy-2′-(morpholinomethyl)biphenyl-3-yloxy)nicotinamido)cyclohexyl)-2-(hydroxymethyl)thiazole-4-carboxamide] | 0.0631 |
| Cc1nc(C(=O)N[C@H]2CC[C@@H](NC(=O)c3cc(F)cnc3Oc3cccc(-c4ccc(CN5CCCN(C)CC5)cc4)c3)CC2)cs1 [Example 60, N-((1s,4s)-4-(5-fluoro-2-(4′-((4-methyl-1,4-diazepan-1-yl)methyl)biphenyl-3-yloxy)nicotinamido)cyclohexyl)-2-methylthiazole-4-carboxamide] | 0.0501 |
| Cc1cc(C(=O)N[C@H]2CC[C@@H](NC(=O)c3cc(F)cnc3Oc3cccc(-c4ccc(CN5C[C@@H](C)N[C@@H](C)C5)cc4)c3)CC2)nn1C [Example 62, N-((1s,4s)-4-(1,5-dimethyl-1H-pyrazole-3-carboxamido)cyclohexyl)-2-(4′-(((3S,5R)-3,5-dimethylpiperazin-1-yl)methyl)biphenyl-3-yloxy)-5-fluoronicotinamide] | 0.0251 |
| COCc1nc(C(=O)N[C@H]2CC[C@@H](NC(=O)c3cc(F)cnc3Oc3cccc(-c4ccc(O)cc4CN4CCOCC4)c3)CC2)cs1 [Example 63, N-((1s,4s)-4-(5-fluoro-2-(4′-hydroxy-2′-(morpholinomethyl)biphenyl-3-yloxy)nicotinamido)cyclohexyl)-2-(methoxymethyl)thiazole-4-carboxamide] | 0.126 |
| Cc1nc(C(=O)N[C@H]2CC[C@@H](NC(=O)c3cc(F)cnc3Oc3cccc(-c4cc(O)cc(CN5C[C@@H](C)N[C@@H](C)C5)c4)c3)CC2)cs1 [Example 65, N-((1s,4s)-4-(2-(3′-(((3R,5S)-3,5-dimethylpiperazin-1-yl)methyl)-5′-hydroxybiphenyl-3-yloxy)-5-fluoronicotinamido)cyclohexyl)-2-methylthiazole-4-carboxamide] | 0.0398 |
| Cc1nc(C(=O)N[C@H]2CC[C@@H](NC(=O)c3cc(F)cnc3Oc3cccc(-c4ccc(O)c(CN5C[C@@H](C)N[C@@H](C)C5)c4)c3)CC2)cs1 [Example 68, N-((1s,4s)-4-(2-(3′-(((3R,5S)-3,5-dimethylpiperazin-1-yl)methyl)-4′-hydroxybiphenyl-3-yloxy)-5-fluoronicotinamido)cyclohexyl)-2-methylthiazole-4-carboxamide] | 0.0251 |
| Cc1nc(C(=O)N[C@H]2CC[C@@H](NC(=O)c3cc(F)cnc3Oc3cccc(-c4cccc(CN5C[C@@H](C)N[C@@H](C)C5)c4O)c3)CC2)cs1 [Example 69, N-((1s,4s)-4-(2-(3′-(((3R,5S)-3,5-dimethylpiperazin-1-yl)methyl)-2′-hydroxybiphenyl-3-yloxy)-5-fluoronicotinamido)cyclohexyl)-2-methylthiazole-4-carboxamide] | 0.398 |
| C[C@@H]1CN(Cc2ccc(-c3cccc(Oc4ncc(F)cc4C(=O)N[C@H]4CC[C@@H](NC(=O)c5cc6ccccn6n5)CC4)c3)cc2)C[C@H](C)N1 [Example 71, N-((1s,4s)-4-(2-(4′-(((3S,5R)-3,5-dimethylpiperazin-1-yl)methyl)biphenyl-3-yloxy)-5-fluoronicotinamido)cyclohexyl)pyrazolo[1,5-a]pyridine-2-carboxamide] | 0.0251 |
